According to PubChem BioAssay AID330 (DTP/NCI, 2004):
“And” between values parts separate entries of the source, which are not always exact repeats. Identical values can stand only once. Inconclusive results and toxic doses are left out.

Tested on: P388 leukemia ip, CD2F1 mice, survival T/C
Assay: NCI In Vivo Anticancer Drug Screen. Data for tumor model P388 Leukemia (intraperitoneal) in CD2F1 (CDF1) mice
Conditions: endpoint: median survival time, higher = longer survival
How it was run: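 Mice carrying the transplanted tumor received test compound or vehicle. Survival was recorded in each group, and the value is the treated-group measurement divided by that of the vehicle-treated control group.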

[1] = dose: 50.0 mg/kg/injection, schedule: Q01DX009 (ip), vehicle: saline with Tween-80
[2] = dose: 100.0 mg/kg/injection, schedule: Q01DX009 (ip), vehicle: saline with Tween-80
[3] = dose: 200.0 mg/kg/injection, schedule: Q01DX009 (ip), vehicle: saline with Tween-80
[4] = dose: 12.5 mg/kg/injection, schedule: Q01DX009 (ip), vehicle: saline
[5] = dose: 25.0 mg/kg/injection, schedule: Q01DX009 (ip), vehicle: saline
[6] = dose: 50.0 mg/kg/injection, schedule: Q01DX009 (ip), vehicle: saline
[7] = dose: 100.0 mg/kg/injection, schedule: Q04DX002 (ip), vehicle: saline
[8] = dose: 60.0 mg/kg/injection, schedule: Q01DX005 (ip), vehicle: Klucel (hydroxypropylcellulose) (HPC)
[9] = dose: 120.0 mg/kg/injection, schedule: Q01DX005 (ip), vehicle: Klucel (hydroxypropylcellulose) (HPC)
[10] = dose: 240.0 mg/kg/injection, schedule: Q01DX005 (ip), vehicle: Klucel (hydroxypropylcellulose) (HPC)
[11] = dose: 15.0 mg/kg/injection, schedule: Q01DX005 (ip), vehicle: saline with Tween-80
[12] = dose: 60.0 mg/kg/injection, schedule: Q01DX005 (ip), vehicle: saline with Tween-80
[13] = dose: 50.0 mg/kg/injection, schedule: Q01DX009 (ip), vehicle: Klucel (hydroxypropylcellulose) (HPC)
[14] = dose: 100.0 mg/kg/injection, schedule: Q01DX009 (ip), vehicle: Klucel (hydroxypropylcellulose) (HPC)
[15] = dose: 50.0 mg/kg/injection, schedule: Q01DX005 (ip), vehicle: saline with Tween-80
[16] = dose: 100.0 mg/kg/injection, schedule: Q01DX005 (ip), vehicle: saline with Tween-80
[17] = dose: 200.0 mg/kg/injection, schedule: Q01DX005 (ip), vehicle: saline with Tween-80

Q: With `CC(C)N(B1NCC(C)N1C(C)C)C(C)C` (stereo unspecified) as the compound, how does the T/C (dose: 100.0 mg/kg/injection, schedule: Q01DX001 (ip), vehicle: saline) read?
A: 101 % of control

Q: What about the T/C (dose: 200.0 mg/kg/injection, schedule: Q01DX001 (ip), vehicle: saline) of the same compound?
A: 102 % of control

Q: What about the T/C (dose: 400.0 mg/kg/injection, schedule: Q01DX001 (ip), vehicle: saline) of the same compound?
A: 100 % of control

Q: `COc1ccc(CCN2CN=C(Sc3ccc([N+](=O)[O-])cc3Cl)NC2)cc1OC` was tested. Which T/C [1] did it give?
A: 98 % of control

Q: What about the T/C [2] of the same compound?
A: 98 % of control

Q: What about the T/C [3] of the same compound?
A: 93 % of control

Q: Which results are given for `CN(C)CC1=c2ccccc2=N/C1=C\c1ccc(N(C)C)cc1`?
A: T/C (dose: 100.0 mg/kg/injection, schedule: Q01DX001 (ip), vehicle: saline with Tween-80): 89 % of control; T/C (dose: 200.0 mg/kg/injection, schedule: Q01DX001 (ip), vehicle: saline with Tween-80): 88 % of control; T/C (dose: 400.0 mg/kg/injection, schedule: Q01DX001 (ip), vehicle: saline with Tween-80): 92 % of control

Q: With `c1ccc2c(c1)Sc1ccccc1N2CCCN1CCCC1` as the compound, how does the T/C [4] read?
A: 105 % of control

Q: And the T/C [5]?
A: 104 % of control

Q: What about the T/C (dose: 25.0 mg/kg/injection, schedule: Q04DX002 (ip), vehicle: saline) of the same compound?
A: 111 % of control

Q: And the T/C [6]?
A: 112 % of control and 120 % of control

Q: And the T/C (dose: 50.0 mg/kg/injection, schedule: Q04DX002 (ip), vehicle: saline)?
A: 111 % of control

Q: And the T/C [7]?
A: 101 % of control

Q: What does the source list for `OC1CSc2ccccc2-n2cccc21` (stereo unspecified)?
A: T/C [8]: 99 % of control; T/C [9]: 106 % of control; T/C [10]: 105 % of control

Q: Which T/C [11] does the source give for `O=C(Nc1ccc(Cl)cc1)Nc1nnc(-c2ccc(F)cc2)o1` here?
A: 100 % of control

Q: And the T/C (dose: 30.0 mg/kg/injection, schedule: Q01DX005 (ip), vehicle: saline with Tween-80)?
A: 91 % of control

Q: And the T/C [12]?
A: 90 % of control

Q: For `COc1cc([N+](=O)[O-])c2nc(Cl)ccc2c1[N+](=O)[O-]`, which T/C (dose: 1.56 mg/kg/injection, schedule: Q01DX009 (ip), vehicle: other) is on record?
A: 96 % of control

Q: And the T/C (dose: 3.13 mg/kg/injection, schedule: Q01DX009 (ip), vehicle: other)?
A: 97 % of control

Q: What about the T/C (dose: 6.25 mg/kg/injection, schedule: Q01DX009 (ip), vehicle: other) of the same compound?
A: 104 % of control

Q: And the T/C (dose: 12.5 mg/kg/injection, schedule: Q01DX009 (ip), vehicle: other)?
A: 94 % of control

Q: And the T/C (dose: 50.0 mg/kg/injection, schedule: Q01DX009 (ip), vehicle: other)?
A: 99 % of control

Q: Which results are given for `CCCCNc1ncc(S(=O)(=O)Cc2ccc3c(c2)OCO3)c(N)n1`?
A: T/C [7]: 94 % of control; T/C (dose: 200.0 mg/kg/injection, schedule: Q04DX002 (ip), vehicle: saline): 100 % of control; T/C (dose: 400.0 mg/kg/injection, schedule: Q04DX002 (ip), vehicle: saline): 90 % of control

Q: For `CCOCCC(=NC(C)(C)C)Nc1ccccc1C`, which T/C [6] is on record?
A: 107 % of control

Q: What about the T/C (dose: 100.0 mg/kg/injection, schedule: Q01DX009 (ip), vehicle: saline) of the same compound?
A: 115 % of control

Q: Which results are given for `COC1=C(Br)[C@H](O)[C@](O)(CC#N)C=C1Br`?
A: T/C (dose: 6.25 mg/kg/injection, schedule: Q01DX009 (ip), vehicle: saline): 121 % of control; T/C (dose: 8.75 mg/kg/injection, schedule: Q01DX009 (ip), vehicle: Klucel (hydroxypropylcellulose) (HPC)): 119 % of control; T/C [4]: 123 % of control; T/C [5]: 118 % of control

Q: Which T/C (dose: 7.5 mg/kg/injection, schedule: Q01DX005 (ip), vehicle: saline with Tween-80) does the source give for `C1CCC2[N-]CCCC2C1.C1CCC2[N-]CCCC2C1.O=[N+]([O-])O.O=[N+]([O-])O.[Cu+2]` (stereo unspecified) here?
A: 99 % of control

Q: What about the T/C [11] of the same compound?
A: 99 % of control

Q: What does the source list for `CSC(=NCCCCCCCCN=C(NC#N)SC)NC#N`?
A: T/C [13]: 94 % of control; T/C [14]: 102 % of control; T/C (dose: 200.0 mg/kg/injection, schedule: Q01DX009 (ip), vehicle: Klucel (hydroxypropylcellulose) (HPC)): 95 % of control

Q: How did the T/C (dose: 12.5 mg/kg/injection, schedule: Q01DX005 (ip), vehicle: saline with Tween-80) turn out when `C=COC(=O)C(Cc1ccccc1)NC(=O)OCc1ccccc1` (stereo unspecified) was run?
A: 106 % of control

Q: What about the T/C (dose: 25.0 mg/kg/injection, schedule: Q01DX005 (ip), vehicle: saline with Tween-80) of the same compound?
A: 100 % of control

Q: And the T/C [15]?
A: 103 % of control

Q: And the T/C [16]?
A: 103 % of control

Q: And the T/C [17]?
A: 100 % of control

Q: For `O=C1CC2c3ccccc3CCN2C2=C1CCC2` (stereo unspecified), which T/C [15] is on record?
A: 96 % of control

Q: What about the T/C [16] of the same compound?
A: 104 % of control

Q: Which T/C [15] does the source give for `CN1c2ccccc2C2CCCCC21` (stereo unspecified) here?
A: 100 % of control

Q: What about the T/C [16] of the same compound?
A: 99 % of control

Q: And the T/C [17]?
A: 111 % of control

Q: Which T/C [8] does the source give for `NC(=O)c1c(Cl)nc2n1CCS2` here?
A: 94 % of control

Q: What about the T/C (dose: 100.0 mg/kg/injection, schedule: Q01DX001 (ip), vehicle: Klucel (hydroxypropylcellulose) (HPC)) of the same compound?
A: 107 % of control

Q: What about the T/C [9] of the same compound?
A: 95 % of control

Q: And the T/C (dose: 200.0 mg/kg/injection, schedule: Q01DX001 (ip), vehicle: Klucel (hydroxypropylcellulose) (HPC))?
A: 100 % of control

Q: What about the T/C [10] of the same compound?
A: 88 % of control

Q: And the T/C (dose: 400.0 mg/kg/injection, schedule: Q01DX001 (ip), vehicle: Klucel (hydroxypropylcellulose) (HPC))?
A: 109 % of control

Q: `CN=C(N)N/N=C(\C)c1ccc2oc3ccc(/C(C)=N/NC(N)=NC)cc3c2c1` was tested. Which T/C (dose: 25.0 mg/kg/injection, schedule: Q04DX002 (ip), vehicle: saline with Tween-80) did it give?
A: 150 % of control

Q: What about the T/C (dose: 50.0 mg/kg/injection, schedule: Q04DX002 (ip), vehicle: saline with Tween-80) of the same compound?
A: 150 % of control

Q: And the T/C (dose: 100.0 mg/kg/injection, schedule: Q04DX002 (ip), vehicle: saline with Tween-80)?
A: 154 % of control

Q: `Cc1ccc(N)c(C(O)(C(F)(F)F)C(F)(F)F)c1` was tested. Which T/C [1] did it give?
A: 99 % of control

Q: And the T/C [2]?
A: 101 % of control

Q: For `COc1ccc(Nc2ncc(C)n2-c2ccc(OC)cc2)cc1`, which T/C [1] is on record?
A: 98 % of control

Q: And the T/C [2]?
A: 98 % of control

Q: What about the T/C [3] of the same compound?
A: 102 % of control

Q: `NS(=O)(=O)c1cc(C(=O)O)cc(NC(=O)CCCCl)c1Oc1ccccc1` was tested. Which T/C [1] did it give?
A: 103 % of control and 123 % of control

Q: And the T/C [2]?
A: 100 % of control and 96 % of control

Q: What about the T/C [3] of the same compound?
A: 104 % of control and 123 % of control

Q: What does the source list for `O=C1C(Br)=CC(=NCl)C=C1Br`?
A: T/C (dose: 3.13 mg/kg/injection, schedule: Q01DX009 (ip), vehicle: Klucel (hydroxypropylcellulose) (HPC)): 101 % of control and 88 % of control; T/C (dose: 6.25 mg/kg/injection, schedule: Q01DX009 (ip), vehicle: Klucel (hydroxypropylcellulose) (HPC)): 101 % of control; T/C (dose: 6.25 mg/kg/injection, schedule: Q01DX009 (ip), vehicle: saline with Tween-80): 93 % of control; T/C (dose: 12.5 mg/kg/injection, schedule: Q01DX009 (ip), vehicle: Klucel (hydroxypropylcellulose) (HPC)): 105 % of control and 94 % of control; T/C (dose: 12.5 mg/kg/injection, schedule: Q01DX009 (ip), vehicle: saline with Tween-80): 88 % of control; T/C (dose: 25.0 mg/kg/injection, schedule: Q01DX009 (ip), vehicle: saline with Tween-80): 90 % of control

Q: With `O=C1c2ccccc2CCCC12OC2c1cccnc1` (stereo unspecified) as the compound, how does the T/C (dose: 25.0 mg/kg/injection, schedule: Q01DX009 (ip), vehicle: Klucel (hydroxypropylcellulose) (HPC)) read?
A: 100 % of control

Q: And the T/C [13]?
A: 100 % of control

Q: And the T/C [14]?
A: 104 % of control

Q: How did the T/C (dose: 50.0 mg/kg/injection, schedule: Q04DX003 (ip), vehicle: saline with Tween-80) turn out when `CCCCOC(=O)c1ccccn1` was run?
A: 95 % of control

Q: And the T/C (dose: 100.0 mg/kg/injection, schedule: Q04DX003 (ip), vehicle: saline with Tween-80)?
A: 100 % of control

Q: What about the T/C (dose: 200.0 mg/kg/injection, schedule: Q04DX003 (ip), vehicle: saline with Tween-80) of the same compound?
A: 95 % of control

Q: Which results are given for `CCOC(/C=C/c1ccccc1)OCC`?
A: T/C (dose: 100.0 mg/kg/injection, schedule: Q04DX003 (ip), vehicle: saline): 104 % of control; T/C (dose: 200.0 mg/kg/injection, schedule: Q04DX003 (ip), vehicle: saline): 104 % of control

Q: Which results are given for `CS/N=C(/c1ccc(/C(=N/SC)N(C)C)cc1)N(C)C`?
A: T/C [8]: 106 % of control; T/C [12]: 100 % of control; T/C [9]: 106 % of control; T/C (dose: 120.0 mg/kg/injection, schedule: Q01DX005 (ip), vehicle: saline with Tween-80): 102 % of control; T/C (dose: 240.0 mg/kg/injection, schedule: Q01DX005 (ip), vehicle: saline with Tween-80): 99 % of control
